The record followed here is the supplement of paper PMC10307832.

Assay in all cases: relative viability (nuclei count vs DMSO), 5 days (fraction); higher = more cells survive
Compound in one test: O=C(C[C@H]1NCCC[C@@H]1O)Cn1cnc2cc(Br)c(Cl)cc2c1=O (racemic) [Halofuginone]
The gist of the method:
(§1)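 Vehicle-anchored 1536-well plates of lung cancer cell lines, held overnight at 37 °C, were pinned with five library-drug doses (not always all listed) spaced by √10. No medium change followed over the next 5 days, after which the cells were fixed, permeabilised and Hoechst-stained together and imaged at 4×. Nuclei were counted with MetaXpress, and viability is treated-well nuclei over vehicle-well nuclei, taken as a median across plates. Plates passed with control CV below 25% and at least one doubling.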

Compound in the next test: COc1cc2c(Oc3ccc4[nH]c(C)cc4c3F)ncnc2cc1OCCCN1CCCC1 [Cediranib]
An outline of the steps:
as §1

Compound in another test: Nc1ncn([C@H]2C[C@H](O)[C@@H](CO)O2)c(=O)n1 [Decitabine]
An outline of the steps:
as §1

With UMC-11, the relative viability with Halofuginone (0.001 µM) was determined as 1.12; in the test with Halofuginone (0.003162 µM) it was 0.984; with Halofuginone (0.01 µM), 0.97; with Halofuginone (0.03162 µM), 0.901; with Halofuginone (0.1 µM) it was 0.702; with Cediranib (0.04 µM), 0.989. Besides, the relative viability is 0.748 with Cediranib (0.1265 µM); 0.88 with Cediranib (0.4 µM); 0.69 in the test with Cediranib (1.265 µM); 0.92 in the test with Cediranib (4 µM); 0.914 in the test with Decitabine (0.04 µM); 0.8 with Decitabine (0.1265 µM). Besides, the relative viability in the test with Decitabine (0.4 µM) turned out to be 0.536; with Decitabine (1.265 µM), 0.387; with Decitabine (2 µM, anchor plate), 0.638; with Decitabine (4 µM), 0.419.
